Assay [1] deals with T1, human σ1 receptor (Homo sapiens, UniProt Q99720).
T1 construct: expressed in transfected cells; host or cells: HEK-293
Nature of the assay: Human σ1 receptor radioligand assay ([3H](+)-pentazocine, transfected HEK-293 membranes). The note with it: class scale, read-out: Binding σ-1 Ki. In short, it runs like this: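 Compounds were tested at a single 1 or 10 μM concentration (% inhibition) or at five concentrations to give Ki. They competed with 5 nM [3H](+)-pentazocine for transfected HEK-293 membranes (7 μg) in 50 mM Tris-HCl pH 8 at 37° C for 120 minutes. Nonspecific binding was set with 10 μM haloperidol, and a filtration scintillation read-out was used.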

Assay [2] deals with T2, human σ2/TMEM97 receptor (Homo sapiens, UniProt Q5BJF2).
T2 construct: expressed in transfected cells; host or cells: HEK-293
T2 sequence (Q5BJF2 whole entry): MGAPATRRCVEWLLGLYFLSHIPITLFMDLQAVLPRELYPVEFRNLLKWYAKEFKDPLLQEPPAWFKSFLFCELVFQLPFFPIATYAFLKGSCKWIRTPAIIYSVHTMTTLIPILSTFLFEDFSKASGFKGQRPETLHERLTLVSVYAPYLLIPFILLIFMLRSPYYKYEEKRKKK
Nature of the assay: Binding assay to human σ2/TMEM97 receptor ([3H]-DTG, transfected HEK-293 membranes). The note with it: class scale, read-out: Binding σ-2 Ki. An outline of the steps: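 Competition against 10 nM [3H]-DTG (Tris-HCl 50 mM, pH 8.0, 25 °C, 120 min) using 15 μg transfected HEK-293 membrane protein, with 10 μM haloperidol defining NSB. Bound radioactivity counted after filtration; results as single-point % inhibition (1 or 10 μM) or five-point Ki.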

Some results are limits rather than exact numbers.

In general, Ki refers to the equilibrium dissociation constant of an inhibitor or competing ligand from its target.

T1 sequence (Q99720 whole entry): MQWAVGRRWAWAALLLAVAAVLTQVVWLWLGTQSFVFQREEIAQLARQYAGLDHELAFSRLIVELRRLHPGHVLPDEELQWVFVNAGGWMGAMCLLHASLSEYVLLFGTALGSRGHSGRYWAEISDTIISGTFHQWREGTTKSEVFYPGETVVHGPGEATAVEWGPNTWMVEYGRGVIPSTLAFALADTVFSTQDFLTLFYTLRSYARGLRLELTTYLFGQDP

Consider `Cc1cc(-c2nn(C)c(Cl)c2C(=O)N2CC[C@]3(C2)C[C@H](NCCC(C)(C)C)C3)no1` [Example 169, (5-Chloro-1-methyl-3-(5-methylisoxazol-3-yl)-1H-pyrazol-4-yl)((2s,4r)-2-((3,3-dimethylbutyl)amino)-6-azaspiro[3.4]octan-6-yl)methanone], for which the Ki in assay [1] was over 1000 nM; in assay [2] it was under 100 nM.
With `Cc1cc(-c2nn(-c3ccncc3)c(Cl)c2C(=O)N2CCC3(CCN(CCC(C)(C)C)CC3)CC2)no1` [Example 170, (5-Chloro-3-(5-methylisoxazol-3-yl)-1-(pyridin-4-yl)-1H-pyrazol-4-yl)(9-(3,3-dimethylbutyl)-3,9-diazaspiro[5.5]undecan-3-yl)methanone], the figures for the Ki in assay [1] and in assay [2] were 100 to 500 nM and under 100 nM, respectively.
On to `CCn1nc(-c2ccon2)c(C(=O)N2CCC3(CCN(CCC(C)(C)C)CC3)CC2)c1Cl` [Example 171, (5-Chloro-1-ethyl-3-(isoxazol-3-yl)-1H-pyrazol-4-yl)(9-(3,3-dimethylbutyl)-3,9-diazaspiro[5.5]undecan-3-yl)methanone], for which the Ki in assay [1] was 100 to 500 nM; in assay [2], under 100 nM.
Regarding `Cc1cc(-c2nn(-c3ccccn3)c(Cl)c2C(=O)N2CCC3(CCN(CCC(C)(C)C)CC3)CC2)no1` [Example 172, (5-Chloro-3-(5-methylisoxazol-3-yl)-1-(pyridin-2-yl)-1H-pyrazol-4-yl)(9-(3,3-dimethylbutyl)-3,9-diazaspiro[5.5]undecan-3-yl)methanone], the Ki in assay [1] was 500 to 1000 nM; in assay [2], under 100 nM.
The corresponding values for `Cn1nc(-c2ccccn2)c(C(=O)N2CCC3(CCN(CCC(C)(C)C)CC3)CC2)c1Cl` [Example 173, (5-Chloro-1-methyl-3-(pyridin-2-yl)-1H-pyrazol-4-yl)(9-(3,3-dimethylbutyl)-3,9-diazaspiro[5.5]undecan-3-yl)methanone] are 500 to 1000 nM and under 100 nM.
For the molecule `Cc1cc(-c2nn(C)c(Cl)c2C(=O)N2CCC3(CC2)CC(NCCC(C)(C)C)C3)no1` [Example 174, (5-Chloro-1-methyl-3-(5-methylisoxazol-3-yl)-1H-pyrazol-4-yl)(2-((3,3-dimethylbutyl)amino)-7-azaspiro[3.5]nonan-7-yl)methanone], the Ki in assay [1] is 500 to 1000 nM; in assay [2], under 100 nM.
The corresponding values for `Cc1cc(-c2nn(C)c(Cl)c2C(=O)N2CCC3(CCN(Cc4ccccc4)CC3)CC2)no1` [Example 175, (9-Benzyl-3,9-diazaspiro[5.5]undecan-3-yl)(5-chloro-1-methyl-3-(5-methylisoxazol-3-yl)-1H-pyrazol-4-yl)methanone] are 500 to 1000 nM and under 100 nM.
The corresponding values for `CCc1nc(C)c(-c2nn(C)c(Cl)c2C(=O)N2CCC3(CCN(CCC(C)(C)C)CC3)CC2)o1` [Example 176, (5-Chloro-3-(2-ethyl-4-methyloxazol-5-yl)-1-methyl-1H-pyrazol-4-yl)(9-(3,3-dimethylbutyl)-3,9-diazaspiro[5.5]undecan-3-yl)methanone] are over 1000 nM and under 100 nM.
In the same order, the values of `CC(C)c1cc(-c2nn(C)c(Cl)c2C(=O)N2CCC3(CCN(CCC(C)(C)C)CC3)CC2)no1` [Example 177, (5-Chloro-3-(5-isopropylisoxazol-3-yl)-1-methyl-1H-pyrazol-4-yl)(9-(3,3-dimethylbutyl)-3,9-diazaspiro[5.5]undecan-3-yl)methanone] are 100 to 500 nM and under 100 nM.
Turning to `Cn1cc(-c2nn(C)c(Cl)c2C(=O)N2CCC3(CCN(CCC(C)(C)C)CC3)CC2)cn1` [Example 178, (5-Chloro-1,1′-dimethyl-1H,1′H-[3,4′-bipyrazol]-4-yl)(9-(3,3-dimethylbutyl)-3,9-diazaspiro[5.5]undecan-3-yl)methanone], the Ki in assay [1] is over 1000 nM; in assay [2], 100 to 500 nM.
On to `CCn1ccc(-c2nn(C)c(Cl)c2C(=O)N2CCC3(CCN(CCC(C)(C)C)CC3)CC2)n1` [Example 179, (5-Chloro-1′-ethyl-1-methyl-1H,1′H-[3,3′-bipyrazol]-4-yl)(9-(3,3-dimethylbutyl)-3,9-diazaspiro[5.5]undecan-3-yl)methanone], for which the Ki in assay [1] was over 1000 nM; in assay [2] it was under 100 nM.
On to `Cn1nc(-c2cccc(C(F)(F)F)n2)c(C(=O)N2CCC3(CCN(CCC(C)(C)C)CC3)CC2)c1Cl` [Example 180, (5-Chloro-1-methyl-3-(6-(trifluoromethyl)111ndecane-2-yl)-1H-pyrazol-4-yl)(9-(3,3-dimethylbutyl)-3,9-diazaspiro[5.5]111ndecane-3-yl)methanone], for which the Ki in assay [1] is 100 to 500 nM; in assay [2], under 100 nM.
The corresponding values for `Cn1ccc(-c2nn(C)c(Cl)c2C(=O)N2CCC3(CCN(CCC(C)(C)C)CC3)CC2)n1` [Example 181, (5-Chloro-1,1′-dimethyl-1H,1′H-[3,3′-bipyrazol]-4-yl)(9-(3,3-dimethylbutyl)-3,9-diazaspiro[5.5]undecan-3-yl)methanone] are over 1000 nM and 100 to 500 nM.
The corresponding values for `CCCn1nc(-c2cc(C)on2)c(C(=O)N2CCC3(CCN(CCC(C)(C)C)CC3)CC2)c1Cl` [Example 182, (5-Chloro-3-(5-methylisoxazol-3-yl)-1-propyl-1H-pyrazol-4-yl)(9-(3,3-dimethylbutyl)-3,9-diazaspiro[5.5]undecan-3-yl)methanone] are 100 to 500 nM and under 100 nM.
For the molecule `Cc1cc(-c2nn(C(C)C)c(Cl)c2C(=O)N2CCC3(CCN(CCC(C)(C)C)CC3)CC2)no1` [Example 183, (5-Chloro-1-isopropyl-3-(5-methylisoxazol-3-yl)-1H-pyrazol-4-yl)(9-(3,3-dimethylbutyl)-3,9-diazaspiro[5.5]undecan-3-yl)methanone], the Ki was 500 to 1000 nM in assay [1] and under 100 nM in assay [2].
Consider `CCn1nc(-c2cc(C)on2)c(C(=O)N2CC3(CCN(CCC(C)(C)C)CC3)C2)c1Cl` [Example 184, (5-Chloro-1-ethyl-3-(5-methylisoxazol-3-yl)-1H-pyrazol-4-yl)(7-(3,3-dimethylbutyl)-2,7-diazaspiro[3.5]nonan-2-yl)methanone], for which the Ki in assay [1] was 100 to 500 nM; in assay [2], under 100 nM.
As for `CCCn1nc(-c2cc(C)on2)c(C(=O)N2CC3(CCN(CCC(C)(C)C)CC3)C2)c1Cl` [Example 185, (5-Chloro-3-(5-methylisoxazol-3-yl)-1-propyl-1H-pyrazol-4-yl)(7-(3,3-dimethylbutyl)-2,7-diazaspiro[3.5]nonan-2-yl)methanone], the Ki in assay [1] is 100 to 500 nM; in assay [2], under 100 nM.
The corresponding values for `CCOc1cccc(-c2nn(C)c(Cl)c2C(=O)N2CCC3(CCN(CCC(C)(C)C)CC3)CC2)n1` [Example 186, (5-Chloro-3-(6-ethoxypyridin-2-yl)-1-methyl-1H-pyrazol-4-yl)(9-(3,3-dimethylbutyl)-3,9-diazaspiro[5.5]undecan-3-yl)methanone] are 100 to 500 nM and under 100 nM.
In the same order, the values of `CCn1nc(-c2ccon2)c(C(=O)N2CC3(CCN(CCC(C)(C)C)CC3)C2)c1Cl` [Example 187, (5-Chloro-1-ethyl-3-(isoxazol-3-yl)-1H-pyrazol-4-yl)(7-(3,3-dimethylbutyl)-2,7-diazaspiro[3.5]nonan-2-yl)methanone] are 500 to 1000 nM and under 100 nM.
Consider `Cc1cc(-c2nn(C(C)C)c(Cl)c2C(=O)N2CC3(CCN(CCC(C)(C)C)CC3)C2)no1` [Example 188, (5-Chloro-1-isopropyl-3-(5-methylisoxazol-3-yl)-1H-pyrazol-4-yl)(7-(3,3-dimethylbutyl)-2,7-diazaspiro[3.5]nonan-2-yl)methanone], for which the values for the Ki in assay [1] and in assay [2] were 500 to 1000 nM and under 100 nM, respectively.
In the same order, the values of `Cc1cccc(-c2nn(C)c(Cl)c2C(=O)N2CCC3(CCN(CCC(C)(C)C)CC3)CC2)n1` [Example 189, (5-Chloro-1-methyl-3-(6-methylpyridin-2-yl)-1H-pyrazol-4-yl)(9-(3,3-dimethylbutyl)-3,9-diazaspiro[5.5]undecan-3-yl)methanone] are 500 to 1000 nM and under 100 nM.
For `CCn1nc(-c2cc(C3CC3)on2)c(C(=O)N2CCC3(CCN(CCC(C)(C)C)CC3)CC2)c1Cl` [Example 190, (5-Chloro-3-(5-cyclopropylisoxazol-3-yl)-1-ethyl-1H-pyrazol-4-yl)(9-(3,3-dimethylbutyl)-3,9-diazaspiro[5.5]undecan-3-yl)methanone], the Ki was 100 to 500 nM in assay [1] and under 100 nM in assay [2].
In the same order, the values of `Cn1nc(-c2cc(C3CC3)on2)c(C(=O)N2CCC3(CCN(CCC(C)(C)C)CC3)CC2)c1Cl` [Example 191, (5-Chloro-3-(5-cyclopropylisoxazol-3-yl)-1-methyl-1H-pyrazol-4-yl)(9-(3,3-dimethylbutyl)-3,9-diazaspiro[5.5]undecan-3-yl)methanone] are 100 to 500 nM and under 100 nM.
The corresponding values for `CCn1nc(-c2cc(C(C)C)on2)c(C(=O)N2CCC3(CCN(CCC(C)(C)C)CC3)CC2)c1Cl` [Example 192, (5-Chloro-1-ethyl-3-(5-isopropylisoxazol-3-yl)-1H-pyrazol-4-yl)(9-(3,3-dimethylbutyl)-3,9-diazaspiro[5.5]undecan-3-yl)methanone] are 100 to 500 nM and under 100 nM.
The corresponding values for `Cc1cc(-c2nn(C)c(Cl)c2C(=O)N2CCCC3(CN(CCC(C)(C)C)C3)C2)no1` [Example 193, (5-Chloro-1-methyl-3-(5-methylisoxazol-3-yl)-1H-pyrazol-4-yl)(2-(3,3-dimethylbutyl)-2,6-diazaspiro[3.5]nonan-6-yl)methanone] are 500 to 1000 nM and under 100 nM.
